# From ChEMBL document CHEMBL1201862, “PubChem BioAssay data set” (2004)
# Activity calls are given as the source filed them.
# Tests used:
# [1] = NIH-3T3 fibroblast cytotoxicity, dose response, cytotoxicity control, cell-based, fluorescence, Alamar Blue, secondary assay (AID 2327); assay type: functional;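 note: NIH-3T3 mouse fibroblasts cultured with fluconazole at 8 µg/mL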
# [2] = non-specific 3'UTR reporter inhibition in Clone20-Shn3RL – cell-based, Renilla luciferase, cherry-picked, counter-screen for Shn3 inhibitor project, dose response (AID 624133); assay type: functional
# [3] = loss of viability in HepG2 cells – cell-based, CellTiter-Glo, cherry-picked, cytotoxicity control for Shn3 inhibitor project, dose response (AID 624134); assay type: functional
# [4] = fluconazole-exposed Candida albicans growth modulators – fluorescence, retest, confirmation (AID 2467); assay type: functional, cell-based
# [5] = target: Heat shock protein HSP 90-alpha (Homo sapiens, UniProt P07900); assay type: functional, organism-based
# [6] = target: T1, Replicative DNA helicase DnaB (Mycobacterium tuberculosis, UniProt P9WMR3); assay: DnaB intein splicing inhibitors, dose response, biochemical, cell-free fluorescence (AID 449749); assay type: functional
# T1 sequence (P9WMR3 whole entry): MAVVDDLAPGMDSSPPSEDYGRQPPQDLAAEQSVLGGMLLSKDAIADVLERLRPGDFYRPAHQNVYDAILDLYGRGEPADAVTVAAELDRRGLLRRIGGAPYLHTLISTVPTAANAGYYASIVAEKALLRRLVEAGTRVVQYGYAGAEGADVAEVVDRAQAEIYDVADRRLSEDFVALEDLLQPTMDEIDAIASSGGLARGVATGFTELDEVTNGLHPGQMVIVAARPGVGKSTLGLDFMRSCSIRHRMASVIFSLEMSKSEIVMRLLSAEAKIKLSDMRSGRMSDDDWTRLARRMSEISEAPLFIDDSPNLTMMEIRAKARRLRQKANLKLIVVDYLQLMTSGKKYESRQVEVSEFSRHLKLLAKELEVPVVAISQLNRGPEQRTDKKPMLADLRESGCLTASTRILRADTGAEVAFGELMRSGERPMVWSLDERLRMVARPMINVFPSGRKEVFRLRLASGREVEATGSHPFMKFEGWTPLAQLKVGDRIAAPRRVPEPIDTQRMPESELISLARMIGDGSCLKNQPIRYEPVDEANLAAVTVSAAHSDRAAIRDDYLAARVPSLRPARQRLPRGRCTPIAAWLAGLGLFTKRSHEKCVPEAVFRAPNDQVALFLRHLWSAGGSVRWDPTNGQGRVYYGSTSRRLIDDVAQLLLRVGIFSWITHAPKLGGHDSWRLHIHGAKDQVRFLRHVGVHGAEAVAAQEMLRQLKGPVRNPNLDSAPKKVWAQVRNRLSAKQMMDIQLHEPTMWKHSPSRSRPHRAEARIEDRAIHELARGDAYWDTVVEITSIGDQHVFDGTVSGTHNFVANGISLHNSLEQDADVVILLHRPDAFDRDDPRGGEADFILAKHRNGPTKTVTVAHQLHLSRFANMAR
# [7] = reduction of Shn3 3'UTR-driven luciferase in osteoblasts – cell-based, Clone20 osteoblasts, firefly luciferase, cherry-picked, dose response (AID 624132); assay type: functional;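 note: firefly luciferase luminescence from reporter carrying the Shn3 3'UTR in osteoblasts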
# Protein RecA = target: T2, Protein RecA (Mycobacterium tuberculosis, UniProt P9WHJ3); assay: Fluorescence Cell-Free Homogeneous Dose Retest to Identify Inhibitors of RecA-Intein Splicing Activity. [Related pubchem assays (depositor defined):AID2097, AID2223, AID489010, AID492950]; assay type: functional
# T2 sequence (P9WHJ3 whole entry): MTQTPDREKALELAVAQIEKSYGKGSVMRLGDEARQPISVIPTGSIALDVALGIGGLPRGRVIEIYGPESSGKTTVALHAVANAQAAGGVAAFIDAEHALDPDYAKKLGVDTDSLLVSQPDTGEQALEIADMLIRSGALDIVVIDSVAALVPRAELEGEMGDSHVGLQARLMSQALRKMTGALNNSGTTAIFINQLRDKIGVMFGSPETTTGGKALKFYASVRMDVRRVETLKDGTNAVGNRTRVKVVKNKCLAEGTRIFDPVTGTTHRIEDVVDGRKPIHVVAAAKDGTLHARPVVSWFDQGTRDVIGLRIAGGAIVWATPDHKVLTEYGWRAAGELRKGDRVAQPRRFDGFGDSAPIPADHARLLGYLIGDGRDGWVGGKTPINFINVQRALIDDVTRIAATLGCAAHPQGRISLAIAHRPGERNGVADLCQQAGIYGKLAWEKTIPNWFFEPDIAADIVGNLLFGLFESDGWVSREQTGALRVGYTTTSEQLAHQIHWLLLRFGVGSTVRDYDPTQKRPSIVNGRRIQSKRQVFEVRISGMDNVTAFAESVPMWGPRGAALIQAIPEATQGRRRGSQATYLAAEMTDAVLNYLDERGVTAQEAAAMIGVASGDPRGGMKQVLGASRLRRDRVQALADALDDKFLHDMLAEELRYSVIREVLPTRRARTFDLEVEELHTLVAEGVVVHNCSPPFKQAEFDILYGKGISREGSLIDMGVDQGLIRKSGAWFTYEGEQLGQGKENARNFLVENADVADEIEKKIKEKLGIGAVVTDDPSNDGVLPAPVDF
# [8] = target: T3, Zinc finger protein mex-5 (Caenorhabditis elegans, UniProt Q9XUB2); assay: potency of MEX-5 RNA-binding blockers – biochemical, C. elegans, fluorescence polarization, dose response (AID 1960)
# T3 sequence (Q9XUB2 whole entry): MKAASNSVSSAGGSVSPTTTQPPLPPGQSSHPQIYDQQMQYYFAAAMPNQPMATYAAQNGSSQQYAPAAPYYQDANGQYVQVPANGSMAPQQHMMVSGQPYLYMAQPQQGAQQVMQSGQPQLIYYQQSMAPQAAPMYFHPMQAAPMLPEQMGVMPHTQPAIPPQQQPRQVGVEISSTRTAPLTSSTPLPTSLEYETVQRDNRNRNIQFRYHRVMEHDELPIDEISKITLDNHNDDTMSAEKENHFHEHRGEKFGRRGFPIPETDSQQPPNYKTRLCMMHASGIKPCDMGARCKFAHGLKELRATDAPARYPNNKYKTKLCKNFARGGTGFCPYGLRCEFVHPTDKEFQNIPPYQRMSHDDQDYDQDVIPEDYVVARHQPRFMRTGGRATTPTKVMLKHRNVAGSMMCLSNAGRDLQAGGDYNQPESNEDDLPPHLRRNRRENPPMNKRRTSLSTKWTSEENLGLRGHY
# [9] = target: T4, RNA-binding protein pos-1 (Caenorhabditis elegans, UniProt G5EF15); assay: disruptors of C. elegans POS-1 RNA interaction – biochemical, fluorescence polarization, dose response (AID 1964);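 note: purified POS-1 fused to maltose binding protein made in E. coli; potency of compounds blocking POS-1 binding to fluorescent RNA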
# T4 sequence (G5EF15 whole entry): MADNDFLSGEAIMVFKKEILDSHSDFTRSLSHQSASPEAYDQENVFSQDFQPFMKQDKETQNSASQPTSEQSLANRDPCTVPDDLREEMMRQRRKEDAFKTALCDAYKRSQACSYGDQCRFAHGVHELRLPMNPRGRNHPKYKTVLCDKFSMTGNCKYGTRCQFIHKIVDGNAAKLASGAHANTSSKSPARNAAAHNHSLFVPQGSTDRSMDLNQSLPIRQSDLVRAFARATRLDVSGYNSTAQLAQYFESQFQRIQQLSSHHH
# [10] = target: Eukaryotic translation initiation factor 4E (Mus musculus, UniProt P63073); assay: blockers of eIF4G binding by eIF4E – biochemical, TR-FRET, dose response (AID 855); assay type: functional;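 note: potency for disrupting eIF4E binding to eIF4GI seen as loss of FRET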
# [11] = target: Induced myeloid leukemia cell differentiation protein Mcl-1 (Homo sapiens, UniProt Q07820); assay type: functional
# Leucine aminopeptidase = target: T5, Leucine aminopeptidase (Plasmodium falciparum 3D7, UniProt Q8IL11); assay: P. falciparum M17LAP inhibitors, primary screen, biochemical, fluorogenic H-Leu-NHMec substrate, 1536-well (AID 1619); assay type: functional
# T5 sequence (Q8IL11 whole entry): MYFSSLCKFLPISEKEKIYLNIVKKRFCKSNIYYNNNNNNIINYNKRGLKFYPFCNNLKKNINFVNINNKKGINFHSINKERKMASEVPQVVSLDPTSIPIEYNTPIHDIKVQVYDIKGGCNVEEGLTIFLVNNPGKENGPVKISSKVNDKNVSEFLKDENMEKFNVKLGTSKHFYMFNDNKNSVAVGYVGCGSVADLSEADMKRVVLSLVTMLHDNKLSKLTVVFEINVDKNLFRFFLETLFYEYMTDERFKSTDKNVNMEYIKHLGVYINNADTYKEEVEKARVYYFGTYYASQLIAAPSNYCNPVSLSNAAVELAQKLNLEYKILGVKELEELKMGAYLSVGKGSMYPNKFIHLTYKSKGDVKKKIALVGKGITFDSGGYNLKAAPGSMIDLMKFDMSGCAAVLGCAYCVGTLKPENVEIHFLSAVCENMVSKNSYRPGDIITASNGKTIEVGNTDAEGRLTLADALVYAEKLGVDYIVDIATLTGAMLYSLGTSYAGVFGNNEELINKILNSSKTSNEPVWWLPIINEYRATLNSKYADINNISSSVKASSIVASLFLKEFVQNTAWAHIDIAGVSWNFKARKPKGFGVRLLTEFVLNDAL
# Cytochrome P450 3A4 = Cytochrome P450 3A4 (Homo sapiens, UniProt P08684);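 note: CYP3A4 tested as one member of a cytochrome P450 panel screen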
# [12] = target: T6, Calpain-2 catalytic subunit (Sus scrofa, UniProt P43367); assay: m-calpain protease blockers, concentration series – biochemical, fluorogenic peptide substrate, dose response (AID 1420); assay type: functional
# T6 sequence (P43367 whole entry): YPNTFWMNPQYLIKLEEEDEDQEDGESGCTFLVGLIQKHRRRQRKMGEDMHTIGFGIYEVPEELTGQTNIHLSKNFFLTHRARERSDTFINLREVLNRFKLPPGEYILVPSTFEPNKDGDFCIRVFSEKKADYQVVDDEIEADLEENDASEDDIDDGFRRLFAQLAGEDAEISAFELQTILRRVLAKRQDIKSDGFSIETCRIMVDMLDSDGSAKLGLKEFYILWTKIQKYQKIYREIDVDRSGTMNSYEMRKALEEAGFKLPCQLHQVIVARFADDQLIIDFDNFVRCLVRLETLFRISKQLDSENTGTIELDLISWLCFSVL
# Cytochrome P450 2C19 = Cytochrome P450 2C19 (Homo sapiens, UniProt P33261); assay: Cytochrome panel assay with activity outcomes. Panel member name: p450-cyp2c19 Compounds with AC50 equal or less than 10 uM are considered active; assay type: functional; details: read-out: AC50
# [13] = target: Glyceraldehyde-3-phosphate dehydrogenase (Homo sapiens, UniProt P04406)
# Chain of Glyceraldehyde-3-phosphate dehydrogenase (P04406 whole entry): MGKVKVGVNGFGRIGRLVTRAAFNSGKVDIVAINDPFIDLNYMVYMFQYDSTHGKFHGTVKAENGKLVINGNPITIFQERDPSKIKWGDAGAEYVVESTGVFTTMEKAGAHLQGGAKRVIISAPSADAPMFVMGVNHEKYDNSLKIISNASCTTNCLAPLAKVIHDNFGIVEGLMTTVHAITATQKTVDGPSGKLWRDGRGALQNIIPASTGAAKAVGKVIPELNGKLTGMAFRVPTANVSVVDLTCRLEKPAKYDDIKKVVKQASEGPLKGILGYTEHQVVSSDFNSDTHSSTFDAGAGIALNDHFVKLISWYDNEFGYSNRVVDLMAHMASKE
# Chain of Induced myeloid leukemia cell differentiation protein Mcl-1 (Q07820 whole entry): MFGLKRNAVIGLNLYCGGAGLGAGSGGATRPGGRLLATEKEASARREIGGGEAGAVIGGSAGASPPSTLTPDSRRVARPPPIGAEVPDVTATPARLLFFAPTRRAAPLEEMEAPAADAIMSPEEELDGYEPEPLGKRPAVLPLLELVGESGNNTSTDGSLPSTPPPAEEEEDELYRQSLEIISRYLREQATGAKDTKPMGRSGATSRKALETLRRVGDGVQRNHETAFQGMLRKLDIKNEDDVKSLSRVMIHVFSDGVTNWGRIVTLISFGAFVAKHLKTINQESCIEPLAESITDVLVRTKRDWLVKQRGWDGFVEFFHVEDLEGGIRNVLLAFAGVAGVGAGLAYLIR
# Chain of Eukaryotic translation initiation factor 4E (P63073 whole entry): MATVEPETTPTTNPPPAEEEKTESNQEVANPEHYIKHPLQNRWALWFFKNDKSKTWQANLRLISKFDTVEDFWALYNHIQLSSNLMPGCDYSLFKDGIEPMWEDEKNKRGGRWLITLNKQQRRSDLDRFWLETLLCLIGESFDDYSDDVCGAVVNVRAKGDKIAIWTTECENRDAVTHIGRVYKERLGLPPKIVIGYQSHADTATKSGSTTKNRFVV
# Chain of Cytochrome P450 2C19 (P33261 whole entry): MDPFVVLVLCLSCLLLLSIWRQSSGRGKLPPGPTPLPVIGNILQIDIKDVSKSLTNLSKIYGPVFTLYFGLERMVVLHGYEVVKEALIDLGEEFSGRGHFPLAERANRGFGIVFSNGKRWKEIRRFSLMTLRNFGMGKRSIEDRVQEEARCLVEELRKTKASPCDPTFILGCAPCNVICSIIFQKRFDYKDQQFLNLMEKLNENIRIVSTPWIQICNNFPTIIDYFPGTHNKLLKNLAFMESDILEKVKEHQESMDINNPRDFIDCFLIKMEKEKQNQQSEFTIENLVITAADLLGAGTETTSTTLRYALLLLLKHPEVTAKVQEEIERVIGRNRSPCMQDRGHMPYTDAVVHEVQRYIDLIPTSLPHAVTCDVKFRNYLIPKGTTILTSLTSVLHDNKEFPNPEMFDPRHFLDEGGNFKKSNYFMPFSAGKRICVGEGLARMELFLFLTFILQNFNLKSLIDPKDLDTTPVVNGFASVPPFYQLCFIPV
# Chain of Cytochrome P450 3A4 (P08684 whole entry): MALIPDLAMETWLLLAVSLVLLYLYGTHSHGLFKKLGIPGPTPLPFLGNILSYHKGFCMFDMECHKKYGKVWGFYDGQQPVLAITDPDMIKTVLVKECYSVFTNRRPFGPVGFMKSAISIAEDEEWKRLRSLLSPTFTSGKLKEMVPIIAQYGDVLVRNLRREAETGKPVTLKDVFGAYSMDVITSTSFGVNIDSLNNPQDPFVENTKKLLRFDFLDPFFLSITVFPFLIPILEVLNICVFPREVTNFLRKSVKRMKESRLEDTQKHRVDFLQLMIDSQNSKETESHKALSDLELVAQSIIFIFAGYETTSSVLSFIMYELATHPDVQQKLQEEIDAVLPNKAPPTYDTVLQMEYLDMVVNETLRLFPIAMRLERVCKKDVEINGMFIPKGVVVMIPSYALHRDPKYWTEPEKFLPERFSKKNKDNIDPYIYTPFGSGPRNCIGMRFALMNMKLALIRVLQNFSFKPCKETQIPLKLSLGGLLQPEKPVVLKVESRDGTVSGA
compound,measurement,setting,value
CN1CCN(C(c2ccc(Br)cc2)c2cc(Cl)c3cccnc3c2O)CC1 (stereo not drawn),EC50,[1],4.78 µM (inconclusive)
same,AC50,[2],6.28 µM (active)
same,AC50,[3],34.9 µM (active)
same,EC50,[4],0.492 µM (active)
same,AC50,[5],0.609 µM (active)
same,AC50,[6],14.3 µM (active)
same,AC50,[7],3.61 µM (active)
same,EC50,Protein RecA,3.22 µM (active)
CC(C)C[C@H]1CN=C(N(C)C)N1CC1CCCCCC1,AC50,[2],9.97 µM (active)
same,AC50,[3],> 70 µM (inactive)
same,AC50,[7],5.03 µM (active)
CCOC(=O)/C=c1\s/c(=C\c2ccc(C#N)cc2)c(=O)n1CC(=O)NCc1ccco1,EC50,[8],> 300 µM (not active)
same,EC50,[9],> 300 µM (not active)
O=C(O)CCN1C(=O)/C(=C/c2cn(-c3ccccc3)nc2-c2cccs2)SC1=S,IC50,[10],50 µM (inactive)
same,IC50,[11],3.24 µM (not active)
same,IC50,Leucine aminopeptidase,3.05 µM (active)
CC(C)c1c(O)nc(SCC(=O)Nc2ccc3c(c2)CCC3)[nH]c1=O,IC50,Leucine aminopeptidase,8.08 µM (active)
CCOC(=O)c1c(NC(=O)C2C3C=CC(CC3)C2C(=O)O)sc(C)c1CC (stereo not drawn),IC50,Leucine aminopeptidase,13.2 µM (active)
Cc1cc(C(=O)CSc2nc[nH]n2)c(C)n1-c1cccc(S(=O)(=O)N2CCOCC2)c1,IC50,Leucine aminopeptidase,22.8 µM (active)
Cc1c(CN2CCCCC2)c(O)n(CCCO)c(=O)c1C#N,EC50,[8],> 300 µM (not active)
same,EC50,[9],> 300 µM (not active)
O=C(Nc1cccc(C(F)(F)F)c1)c1cccn(Cc2ccc3c(c2)OC(F)(F)O3)c1=O,AC50,Cytochrome P450 3A4,25.1 µM (inconclusive)
same,IC50,[12],> 50 µM (not active)
same,AC50,Cytochrome P450 2C19,2.24 µM (inconclusive)
O=C(O)C1CC=CCC1C(=O)NCCc1cccc(Cl)c1 (stereo not drawn),IC50,Leucine aminopeptidase,11.8 µM (active)
O=C1C(Cl)=C(N2CCN(C/C=C/c3ccccc3)CC2)C(=O)N1c1ccc(Cl)nc1,IC50,[13],> 50 µM (inconclusive)
CCCN1C=CC(=C/C=C(\C#N)C(=O)OCC)C=C1,IC50,Leucine aminopeptidase,91.5 µM (active)
C=CCOn1c(=O)c(-c2cc3ccccc3o2)[n+]([O-])c2ccccc21,EC50,[8],69.7 µM (inconclusive)
same,EC50,[9],28.3 µM (inconclusive)
Cc1cc(C)n2nc(SCC(=O)c3cc(C)n(-c4cc(C)on4)c3C)nc2n1,AC50,[2],3.28 µM (active)
same,AC50,[3],> 70 µM (inactive)
same,AC50,[7],2.46 µM (active)
O=C(CSc1ccccn1)Nc1ccc(O)c(C(=O)O)c1,IC50,[13],> 100 µM (not active)
CC1=NNC(=O)C1CCC(=O)N/N=C(\C)c1ccccc1 (stereo not drawn),IC50,Leucine aminopeptidase,36.6 µM (active)
O=C(O)CSc1cccc2c(SCC(=O)O)cccc12,IC50,[13],> 100 µM (not active)
COc1ccc(CC(CC(=O)O)C(=O)Nc2ccc(OC)cc2)cc1 (stereo not drawn),IC50,Leucine aminopeptidase,8.96 µM (active)
CN(C)c1ccc(-c2nnc(-c3ccc(S(=O)(=O)C(F)F)cc3)o2)cc1,EC50,[8],31.4 µM (inconclusive)
same,EC50,[9],55.7 µM (inconclusive)
